The text below walks through data of US12521393B2, “Cytotoxicity targeting chimeras for CCR2-expressing cells” (GLAXOSMITHKLINE INTELLECTUAL PROPERTY DEVELOPMENT LIMITED, priority 2021, dated 2026).

This assay concerns endogenous target monocytes in human PBMC. In words: PBMC ex vivo monocyte depletion flow cytometry assay (Example 200). In kind it is cell-based. Particulars: with anti-cotinine antibody (SEQ ID NO: 11/12), 18-24 hours, EC50 in molar, read-out: Ex Vivo Depletion Assay pEC50 (converted). In outline:
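Monocyte depletion is reported as pEC50, averaged or given individually across runs, and read by flow cytometry staining CD45, CD14 and CD4 with a viability dye. Compounds, diluted four-fold over 11 points from 1 mM DMSO stocks, were combined with 30 μg/mL Fc-enhanced anti-cotinine antibody and human PBMC, then incubated 18-24 h at 37° C.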
For orientation: A flow cytometer gives signals particle by particle.
`CC(C)N(C)[C@@H]1CC[C@H](N2CC[C@H](Nc3ncnc4ccc(C(F)(F)F)cc34)C2=O)[C@H](NC(=O)[C@H]2CC[C@@H](NC(=O)CCCO[C@H]3CC[C@H](NC(=O)CCNC(=O)[C@@H]4CC(=O)N(C)[C@H]4c4cccnc4)CC3)CC2)C1` [Example 52, (2S,3S)-N-(3-(((1R,4S)-4-(4-(((1S,4S)-4-(((1R,2S,5R)-5-(Isopropyl(methyl)amino)-2-((S)-2-oxo-3-((6-(trifluoromethyl)quinazolin-4-yl)amino)pyrrolidin-1-yl)cyclohexyl)carbamoyl)cyclohexyl)amino)-4-oxobutoxy)cyclohexyl)amino)-3-oxopropyl)-1-methyl-5-oxo-2-(pyridin-3-yl)pyrrolidine-3-carboxamide]: the EC50 was 0.2 nM. For `CC(C)N(C)[C@@H]1CC[C@H](N2CC[C@H](Nc3ncnc4ccc(C(F)(F)F)cc34)C2=O)[C@H](NC(=O)[C@H]2CC[C@H](NC(=O)CCOC[C@H]3CC[C@H](COCCNC(=O)[C@H]4CC(=O)N(C)[C@@H]4c4cccnc4)CC3)CC2)C1` [Example 53, (2S,3S)-N-(2-(((1R,4S)-4-((3-(((1R,4R)-4-(((1R,2S,5R)-5-(Isopropyl(methyl)amino)-2-((S)-2-oxo-3-((6-(trifluoromethyl)quinazolin-4-yl)amino)pyrrolidin-1-yl)cyclohexyl)carbamoyl)cyclohexyl)amino)-3-oxopropoxy)methyl)cyclohexyl)methoxy)ethyl)-1-methyl-5-oxo-2-(pyridin-3-yl)pyrrolidine-3-carboxamide] the value was 0.631 nM; for `CC(C)N(C)[C@@H]1CC[C@H](N2CC[C@H](Nc3ncnc4ccc(C(F)(F)F)cc34)C2=O)[C@H](NC(=O)[C@H]2CC[C@H](NC(=O)CCCOC[C@H]3CC[C@@H](COCCNC(=O)[C@H]4CC(=O)N(C)[C@@H]4c4cccnc4)CC3)CC2)C1` [Example 57, (2S,3S)-N-(2-(((1S,4R)-4-((4-(((1R,4R)-4-(((1R,2S,5R)-5-(Isopropyl(methyl)amino)-2-((S)-2-oxo-3-((6-(trifluoromethyl)quinazolin-4-yl)amino)pyrrolidin-1-yl)cyclohexyl)carbamoyl)cyclohexyl)amino)-4-oxobutoxy)methyl)cyclohexyl)methoxy)ethyl)-1-methyl-5-oxo-2-(pyridin-3-yl)pyrrolidine-3-carboxamide], 1.58 nM; for `CC(C)N(C)[C@@H]1CC[C@H](N2CC[C@H](Nc3ncnc4ccc(C(F)(F)F)cc34)C2=O)[C@H](NC(=O)[C@H]2CC[C@@H](CC(=O)CCCOC[C@H]3CC[C@H](COCCNC(=O)[C@H]4CC(=O)N(C)[C@@H]4c4cccnc4)CC3)CC2)C1` [Example 60, (2S,3S)-N-(2-(((1R,4S)-4-(((5-((1S,4S)-4-(((1R,2S,5R)-5-(Isopropyl(methyl)amino)-2-((S)-2-oxo-3-((6-(trifluoromethyl)quinazolin-4-yl)amino)pyrrolidin-1-yl)cyclohexyl)carbamoyl)cyclohexyl)-4-oxopentyl)oxy)methyl)cyclohexyl)methoxy)ethyl)-1-methyl-5-oxo-2-(pyridin-3-yl)pyrrolidine-3-carboxamide], 0.631 nM. For `CC(C)N(C)[C@@H]1CC[C@H](N2CC[C@H](Nc3ncnc4ccc(C(F)(F)F)cc34)C2=O)[C@H](NC(=O)CCNC(=O)CCCOC[C@H]2CC[C@@H](COCCNC(=O)[C@H]3CC(=O)N(C)[C@@H]3c3cccnc3)CC2)C1` [Example 62, (2S,3S)-N-(2-(((1S,4R)-4-((4-((3-(((1R,2S,5R)-5-(Isopropyl(methyl)amino)-2-((S)-2-oxo-3-((6-(trifluoromethyl)quinazolin-4-yl)amino)pyrrrolidin-1-yl)cyclohexyl)amino)-3-oxopropyl)amino)-4-oxobutoxy)methyl)cyclohexyl)methoxy)ethyl)-1-methyl-5-oxo-2-(pyridin-3-yl)pyrrolidine-3-carboxamide], the EC50 is 0.501 nM.

Turning to `CC(C)N(C)[C@@H]1CC[C@H](N2CC[C@H](Nc3ncnc4ccc(C(F)(F)F)cc34)C2=O)[C@H](NC(=O)[C@H]2CC[C@@H](NC(=O)CCOCCOCCNC(=O)CNC(=O)[C@H]3CC(=O)N(C)[C@@H]3c3cccnc3)CC2)C1` [Example 63, (2S,3S)-N-(2-((2-(2-(3-(((1S,4s)-4-(((1R,2S,5R)-5-(Isopropyl(methyl)amino)-2-((S)-2-oxo-3-((6-(trifluoromethyl)quinazolin-4-yl)amino)pyrrolidin-1-yl)cyclohexyl)carbamoyl)cyclohexyl)amino)-3-oxopropoxy)ethoxy)ethyl)amino)-2-oxoethyl)-1-methyl-5-oxo-2-(pyridin-3-yl)pyrrolidine-3-carboxamide], the EC50 is 0.631 nM. With `CC(C)N(C)[C@@H]1CC[C@H](N2CC[C@H](Nc3ncnc4ccc(C(F)(F)F)cc34)C2=O)[C@H](NC(=O)CCOCCOCCNC(=O)CCOCCOCCNC(=O)[C@H]2CC(=O)N(C)[C@@H]2c2cccnc2)C1` [Example 76, (2S,3S)-N-(19-(((1R,2S,5R)-5-(Isopropyl(methyl)amino)-2-((S)-2-oxo-3-((6-(trifluoromethyl)quinazolin-4-yl)amino)pyrrolidin-1-yl)cyclohexyl)amino)-9,19-dioxo-3,6,13,16-tetraoxa-10-azanonadecyl)-1-methyl-5-oxo-2-(pyridin-3-yl)pyrrolidine-3-carboxamide], the EC50 is 1.26 nM.

As to `CC(C)N(C)[C@@H]1CC[C@H](N2CC[C@H](Nc3ncnc4ccc(C(F)(F)F)cc34)C2=O)[C@H](NC(=O)[C@H]2CC[C@@H](NC(=O)COCCNC(=O)COCCNC(=O)[C@H]3CC(=O)N(C)[C@@H]3c3cccnc3)CC2)C1` [Example 99, (2S,3S)-N-(2-(2-((2-(2-(((1S,4s)-4-(((1R,2S,5R)-5-(Isopropyl(methyl)amino)-2-((S)-2-oxo-3-((6-(trifluoromethyl)quinazolin-4-yl)amino)pyrrolidin-1-yl)cyclohexyl)carbamoyl)cyclohexyl)amino)-2-oxoethoxy)ethyl)amino)-2-oxoethoxy)ethyl)-1-methyl-5-oxo-2-(pyridin-3-yl)pyrrolidine-3-carboxamide], the EC50 was 0.794 nM.

For `CC(C)N(C)[C@@H]1CC[C@H](N2CC[C@H](Nc3ncnc4ccc(C(F)(F)F)cc34)C2=O)[C@H](NC(=O)CCOCCNC(=O)COCCNC(=O)COCCNC(=O)[C@H]2CC(=O)N(C)[C@@H]2c2cccnc2)C1` [Example 102, (2S,3S)-N-(18-(((1R,2S,5R)-5-(Isopropyl(methyl)amino)-2-((S)-2-oxo-3-((6-(trifluoromethyl)quinazolin-4-yl)amino)pyrrolidin-1-yl)cyclohexyl)amino)-5,11,18-trioxo-3,9,15-trioxa-6,12-diazaoctadecyl)-1-methyl-5-oxo-2-(pyridin-3-yl)pyrrolidine-3-carboxamide], the EC50 was 0.316 nM. As to `CC(C)N(C)[C@@H]1CC[C@H](N2CC[C@H](Nc3ncnc4ccc(C(F)(F)F)cc34)C2=O)[C@H](NC(=O)CCOCCNC(=O)CCOCCNC(=O)COCCNC(=O)[C@H]2CC(=O)N(C)[C@@H]2c2cccnc2)C1` [Example 105, (2S,3S)-N-(19-(((1R,2S,5R)-5-(Isopropyl(methyl)amino)-2-((S)-2-oxo-3-((6-(trifluoromethyl)quinazolin-4-yl)amino)pyrrolidin-1-yl)cyclohexyl)amino)-5,12,19-trioxo-3,9,16-trioxa-6,13-diazanonadecyl)-1-methyl-5-oxo-2-(pyridin-3-yl)pyrrolidine-3-carboxamide], the EC50 was 0.398 nM.
